Where “and” joins values, the source holds several entries; their conditions need not be identical. Equal entries are not always repeated.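 Where inhibition never reached the appropriate level, the endpoint shown equals the highest concentration tested. Otherwise, values were interpolated linearly from a five-concentration, 48-hour dose response in 96-well plates. GI50: concentration for 50% inhibition of growth. Definition used: TGI = concentration required for complete inhibition of growth.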
Key:
Experiment in all cases: NCI tumour cell line growth inhibition, 48 h
HCC-2998 colon = test system: HCC-2998 colon
RPMI-8226 leukemia = test system: RPMI-8226 leukemia
CCRF-CEM leukemia = test system: CCRF-CEM leukemia
SR leukemia = test system: SR leukemia
HS 578T breast = test system: HS 578T breast
SF-539 CNS = test system: SF-539 CNS
BT-549 breast = test system: BT-549 breast
MDA-N = test system: MDA-N
P388/ADR leukemia = test system: P388/ADR leukemia
M19-MEL melanoma = test system: M19-MEL melanoma
P388 leukemia = test system: P388 leukemia

With `COc1ccc(N2C(=O)C(=O)N(C)C2=O)c2ccccc12` the TGI (HCC-2998 colon) was > 10 µM, the TGI (RPMI-8226 leukemia) was > 10 µM and the TGI (CCRF-CEM leukemia) was > 10 µM. The TGI (SR leukemia) was > 10 µM, the TGI (HS 578T breast) was > 10 µM and the TGI (SF-539 CNS) was > 10 µM.
In the case of `CN(CC(=O)O)CC(=O)O`, the TGI (HCC-2998 colon) is reported as > 100 µM, the TGI (RPMI-8226 leukemia) is reported as > 100 µM and the TGI (CCRF-CEM leukemia) is reported as > 100 µM. For the same compound, the TGI (HS 578T breast) was > 100 µM, the TGI (BT-549 breast) was > 100 µM and the TGI (MDA-N) was > 100 µM. The TGI (SF-539 CNS) was > 100 µM.
For `CC[C@@]1(O)C(=O)OCc2c1cc1n(c2=O)Cc2cc3c(CN(C)C)c(O)ccc3nc2-1`, the TGI (P388/ADR leukemia) was 2.77 µM, the GI50 (RPMI-8226 leukemia) was 0.163 µM and 0.0818 µM and 0.435 µM and the GI50 (CCRF-CEM leukemia) was < 0.01 µM and 0.0032 µM. For the same compound, the GI50 (HS 578T breast) was 1.27 µM and 5.8 µM and 1.88 µM, the TGI (HS 578T breast) was 96.6 µM and 12.2 µM and 39.6 µM and the GI50 (M19-MEL melanoma) was 0.603 µM. For the same compound, the TGI (M19-MEL melanoma) was 5.17 µM and 1.36 µM, the GI50 (MDA-N) was 0.0241 µM and 0.119 µM and 0.0221 µM and the TGI (MDA-N) was 0.777 µM and 5.2 µM and 0.902 µM. The GI50 (SF-539 CNS) was < 0.01 µM and 0.00383 µM and 0.0215 µM and the TGI (P388 leukemia) was 2.66 µM.
`O=S(=O)(Nc1nccs1)c1ccc([As](=O)(O)O)cc1` was tested, and the TGI (RPMI-8226 leukemia) was > 100 µM, the TGI (CCRF-CEM leukemia) was > 100 µM and the TGI (HS 578T breast) was > 100 µM. For the same compound, the TGI (BT-549 breast) was > 100 µM.
`Clc1ccc(C2CC(c3cccc(Nc4ccncc4)c3)=NN2c2ccccc2)cc1` (centres undefined) showed a GI50 (HCC-2998 colon) of 1.6 µM, a TGI (HCC-2998 colon) of 3.06 µM and a GI50 (CCRF-CEM leukemia) of 1.94 µM. The TGI (CCRF-CEM leukemia) was 5.41 µM, the GI50 (BT-549 breast) was 1.72 µM and the TGI (BT-549 breast) was 3.38 µM. For the same compound, the GI50 (SF-539 CNS) was 1.7 µM and the TGI (SF-539 CNS) was 3.09 µM.
`COC1=CC(=O)c2c(c(COC(C)=O)cn2C)C1=O` gave a TGI (RPMI-8226 leukemia) of 0.584 µM, a TGI (CCRF-CEM leukemia) of 0.71 µM and a TGI (SR leukemia) of 0.545 µM. It also gave a TGI (BT-549 breast) of 0.0911 µM, a TGI (MDA-N) of 0.253 µM and a TGI (SF-539 CNS) of 0.313 µM.
`CC(C(=O)NCCNC(=O)CCCC(=O)N(C)O)C(=O)NCCNC(=O)CCCC(=O)N(C)O` was tested, and the TGI (HCC-2998 colon) was > 100 µM, the TGI (RPMI-8226 leukemia) was > 100 µM and the TGI (CCRF-CEM leukemia) was > 100 µM. The TGI (SR leukemia) was > 100 µM, the TGI (HS 578T breast) was > 100 µM and the TGI (MDA-N) was > 100 µM.
With `CC(C)=CC1C(COC(=O)c2ccccc2Cl)C1(C)C` (centres undefined) the TGI (CCRF-CEM leukemia) was > 100 µM, the TGI (SR leukemia) was > 100 µM and the TGI (HS 578T breast) was 60.1 µM. The TGI (BT-549 breast) was 95.1 µM and the TGI (MDA-N) was > 100 µM.
`CC1(CO)C(O)CCC2(C)C1C(O)CC1CC3CC12CCC3(O)CO` (centres undefined) was tested, and the TGI (P388/ADR leukemia) was > 225 µM, the TGI (HCC-2998 colon) was > 225 µM and the TGI (RPMI-8226 leukemia) was > 196 µM. For the same compound, the TGI (CCRF-CEM leukemia) was > 225 µM, the TGI (M19-MEL melanoma) was > 153 µM and the TGI (SF-539 CNS) was > 225 µM. The TGI (P388 leukemia) was > 22.5 µM.
With `CCN(CC)CCCC(C)Nc1c2ccc(Cl)cc2nc2cc(Cl)ccc12` (centres undefined) the TGI (P388/ADR leukemia) was 3.48 µM, the TGI (HCC-2998 colon) was 5.49 µM and the TGI (RPMI-8226 leukemia) was 5.11 µM. It also gave a TGI (CCRF-CEM leukemia) of 7.47 µM, a TGI (M19-MEL melanoma) of 9.97 µM and a TGI (SF-539 CNS) of 15.6 µM. The TGI (P388 leukemia) was 3.58 µM.
For `O=[N+]([O-])c1ccc(Cc2nc3cc4ccccc4cc3[nH]2)cc1C(F)(F)F`, the TGI (HCC-2998 colon) was 30.1 µM, the TGI (CCRF-CEM leukemia) was > 100 µM and the TGI (HS 578T breast) was 49.9 µM. It also gave a TGI (BT-549 breast) of 43 µM and a TGI (SF-539 CNS) of 39.1 µM.
`CC(=O)Nc1c2sscc-2n(C)c1=O` was tested, and the TGI (HCC-2998 colon) was 1.89 µM, the TGI (RPMI-8226 leukemia) was 4.48 µM and the TGI (CCRF-CEM leukemia) was 1.51 µM. For the same compound, the TGI (HS 578T breast) was 10.3 µM, the TGI (BT-549 breast) was 2.76 µM and the TGI (MDA-N) was 3.13 µM. For the same compound, the TGI (SF-539 CNS) was 3.52 µM.
Compound `CNCCCn1c2c(c3ccc(Cl)cc3c1=O)C(=O)c1cc(OC)cnc1-2` has a GI50 (SR leukemia) of 0.143 µM, a TGI (SR leukemia) of 1.11 µM and a GI50 (BT-549 breast) of 0.645 µM. It also gave a TGI (BT-549 breast) of 2.07 µM.
For `CSC1=C(SC)C(=O)c2cn(C)c(=O)cc2C1=O`, the TGI (HCC-2998 colon) was 35.8 µM, the TGI (RPMI-8226 leukemia) was > 100 µM and the TGI (CCRF-CEM leukemia) was 0.826 µM. The TGI (HS 578T breast) was > 26.5 µM, the TGI (BT-549 breast) was 3.71 µM and the TGI (MDA-N) was 3.06 µM. The TGI (SF-539 CNS) was 25.3 µM.
With `CC(C)C(=O)Nc1ccc(-c2nc(-c3cccc(OCCN4CCOCC4)c3)c(-c3ccnc(Br)c3)[nH]2)cc1` the GI50 (HCC-2998 colon) was 3.21 µM, the TGI (HCC-2998 colon) was 11.4 µM and the GI50 (RPMI-8226 leukemia) was 1.09 µM. For the same compound, the TGI (RPMI-8226 leukemia) was 4 µM, the GI50 (CCRF-CEM leukemia) was 3.27 µM and the TGI (CCRF-CEM leukemia) was > 100 µM. The GI50 (SR leukemia) was 1.83 µM, the TGI (SR leukemia) was 7.09 µM and the GI50 (HS 578T breast) was 1.04 µM. For the same compound, the TGI (HS 578T breast) was 3.69 µM, the GI50 (BT-549 breast) was 2.82 µM and the TGI (BT-549 breast) was 17.3 µM. It also gave a GI50 (SF-539 CNS) of 2.3 µM and a TGI (SF-539 CNS) of 8.65 µM.

— PubChem BioAssay (NCI)
